This is an account of results in patent publication US7678807B2, “Isoquinoline and benzo[H] isoquinoline derivatives, preparation and therapeutic use thereof as antagonists of the histamine H3 receptor” (sanofi-aventis, priority 2005, dated 2010).

In general, melting point refers to the temperature of the solid-liquid transition. One may read the Ki as the dissociation constant of the complex between target and ligand, obtained from inhibition or displacement. What is called IC50 is the concentration at which inhibition is half-maximal. High values mean a need for much substance, low ones inhibition by little substance.

Counter-ions that a name gives are not always drawn. Where only a bound is given, the exact number is not on record here.

Sequence of native histamine H3 receptor (Q9QYN8 1-397 isoform Q9QYN8-3): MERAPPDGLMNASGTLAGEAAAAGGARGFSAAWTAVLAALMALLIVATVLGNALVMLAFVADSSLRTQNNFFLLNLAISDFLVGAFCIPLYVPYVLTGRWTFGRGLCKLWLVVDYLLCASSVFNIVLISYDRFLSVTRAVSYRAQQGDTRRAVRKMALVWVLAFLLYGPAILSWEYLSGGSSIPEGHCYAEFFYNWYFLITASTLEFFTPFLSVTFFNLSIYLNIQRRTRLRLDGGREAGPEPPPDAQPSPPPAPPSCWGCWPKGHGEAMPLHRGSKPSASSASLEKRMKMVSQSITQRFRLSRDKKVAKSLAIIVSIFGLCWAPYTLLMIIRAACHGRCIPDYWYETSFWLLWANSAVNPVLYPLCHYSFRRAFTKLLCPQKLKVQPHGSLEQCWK

Test system in the first series: not given
Experiment: not given
Conditions: not given
As for `CCCN1CCc2ccc(OCCC3CCCN3C)cc2C1` (stereo not drawn) (as salt: tartrate), the melting point is 66 to 91 °C.
The same measure, in the same setting: the result for `CN1CCC[C@H]1CCOc1ccc2c(c1)CN(CC1CCCCC1)CC2` (as salt: oxalate) [Compound 7, 2-(cyclohexylmethyl)-7-{2-[(2S)-1-methylpyrrolidin-2-yl]ethoxy}-1,2,3,4-tetrahydroisoquinoline] reads 195 to 199 °C; that for `CCCCN1CCc2ccc(OCCC3CCCN3C)cc2C1` (stereo not drawn) (as salt: tartrate), 95 to 105 °C.
Still for that read-out and setting: the result for `CN1CCC[C@@H]1CCOc1ccc2c(c1)CN(CC1CCCCC1)CC2` (as salt: hydrochloride) [Compound 6, 2-(cyclohexylmethyl)-7-{2-[(2R)-1-methylpyrrolidin-2-yl]ethoxy}-1,2,3,4-tetrahydroisoquinoline] reads 190 to 200 °C; that for `CCCCN1CCc2ccc(OC3CCCN(C)CC3)cc2C1` (stereo not drawn) (as salt: tartrate), 96 to 107 °C; that for `CN1CCC[C@@H]1CCOc1ccc2c3c(ccc2c1)CCN(CC1CCCCC1)C3` (as salt: hydrochloride) [Compound 14, 2-(cyclohexylmethyl)-8-{2-[(2R)-1-methylpyrrolidin-2-yl]ethoxy}-1,2,3,4-tetrahydrobenzo[h]isoquinoline], 274 to 277 °C.
Still for that read-out and setting: the result for `CN1CCC[C@H]1CCOc1ccc2c(c1)CN(CC1CCCCC1)CC2` (as salt: hydrochloride) [Compound 18, 2-(Cyclohexylmethyl)-7-(2-[(2S)-1-methylpyrrolidin-2-yl]ethoxy)-1,2,3,4-tetrahydroisoquinoline hydrochloride (1:2)] reads 238 to 241 °C.
`CN1CCCCC1CCOc1ccc2c(c1)CN(CC1CCCCC1)CC2` (stereo not drawn) (as salt: oxalate) [Compound 9, 2-(cyclohexylmethyl)-7-[2-(1-methylpiperidin-2-yl)ethoxy]-1,2,3,4-tetrahydroisoquinoline]: the melting point was 101 to 111 °C.
The same measure, in the same setting: for `CC(C)CCN1CCc2ccc(OC3CCCN(C)CC3)cc2C1` (stereo not drawn) (as salt: tartrate) [Compound 4, 7-[(1-methylazepan-4-yl)oxy]-2-(3-methylbutyl)-1,2,3,4-tetrahydroisoquinoline] the value was 60 to 70 °C.
On the same count and under the same terms, for `CCCN1CCc2ccc(OCCC3CCCCN3C)cc2C1` (stereo not drawn) (as salt: hydrochloride) the value was 186 to 190 °C; for `CN1CCC[C@H]1CCOc1ccc2c3c(ccc2c1)CCN(CC1CCCCC1)C3` (as salt: oxalate) [Compound 15, 2-(cyclohexylmethyl)-8-{2-[(2S)-1-methylpyrrolidin-2-yl]ethoxy}-1,2,3,4-tetrahydrobenzo[h]isoquinoline], 271 to 274 °C.
In turn, `CC(C)CCN1CCc2ccc(OCCC3CCCN3C)cc2C1` (stereo not drawn) (as salt: tartrate) [Compound 3, 2-(3-methylbutyl)-7-[2-(1-methylpyrrolidin-2-yl)ethoxy]-1,2,3,4-tetrahydroisoquinoline] displayed a melting point of 61 to 65 °C.
In the case of `CN1CCCCC1CCOc1ccc2c3c(ccc2c1)CCN(CC1CCCCC1)C3` (stereo not drawn) (as salt: oxalate) [Compound 17, 2-(cyclohexylmethyl)-8-[2-(1-methylpiperidin-2-yl)ethoxy]-1,2,3,4-tetrahydrobenzo[h]isoquinoline], the melting point fell in the range of 124 to 127 °C.
Consider `CN1CCCC1CCOc1ccc2c(c1)CN(Cc1ccccc1)CC2` (stereo not drawn) (as salt: oxalate) [Compound 10, 2-benzyl-7-[2-(1-methylpyrrolidin-2-yl)ethoxy]-1,2,3,4-tetrahydroisoquinoline], for which the melting point was in the range of 143 to 150 °C.
On the same count and under the same terms, for `CN1CCCC(Oc2ccc3c(c2)CN(Cc2ccccc2)CC3)CC1` (stereo not drawn) (as salt: oxalate) [Compound 11, 2-benzyl-7-[(1-methylazepan-4-yl)oxy]-1,2,3,4-tetrahydroisoquinoline] the value was 108 to 116 °C; for `CN1CCCC(Oc2ccc3c4c(ccc3c2)CCN(CC2CCCCC2)C4)CC1` (stereo not drawn) (as salt: oxalate) [Compound 16, 2-(cyclohexylmethyl)-8-[(1-methylazepan-4-yl)oxy]-1,2,3,4-tetrahydrobenzo[h]isoquinoline], 77 to 82 °C; for `CC(C)CN1CCc2ccc(OCCC3CCCN3C)cc2C1` (stereo not drawn) (as salt: tartrate), 77 to 80 °C.
On the same count and under the same terms, for `CN1CCCC(Oc2ccc3c(c2)CN(Cc2cccs2)CC3)CC1` (stereo not drawn) (as salt: oxalate) [Compound 12, 7-[(1-methylazepan-4-yl)oxy]-2-(2-thienylmethyl)-1,2,3,4-tetrahydroisoquinoline] the value was 98 to 110 °C; for `CCCN1CCc2ccc(OC3CCCN(C)CC3)cc2C1` (stereo not drawn) (as salt: tartrate), 76 to 97 °C.

The target in the next series is native histamine H3 receptor (Rattus norvegicus, UniProt Q9QYN8). As to the kind of experiment: in vitro affinity assay, specific binding of [3H]-N-α-methylhistamine, adult rat brain membrane preparation. Conditions: adult rat brain membranes, read-out: Ki with regard to the H3 receptors. The text has this:
Thus, the compounds of the invention of formula (I) were subjected to an in vitro affinity assay on the native histamine H3 receptor in an adult rat brain membrane preparation by the specific binding of [^3H]-N-α-methylhistamine to this receptor, according to methods described by Korte, A. et al. in Biochem. Biophys. Res. Commun., 168, 979-986 (1990) and by West, R. E. Jr. et al. in Mol. Pharmacol., 38, 610-613 (1990).
Consider `CN1CCCC1CCOc1ccc2c(c1)CN(CC1CCCCC1)CC2` (stereo not drawn) [Compound 5, 2-(cyclohexylmethyl)-7-[2-(1-methylpyrrolidin-2-yl)ethoxy]-1,2,3,4-tetrahydroisoquinoline], for which the Ki turned out to be 100 pM.

The target in another series is T1, human histamine H3 receptor (Homo sapiens, UniProt Q9Y5N1).
T1 construct: expressed in transfected cells; host or cells: CHO cells
T1 sequence (Q9Y5N1 whole entry): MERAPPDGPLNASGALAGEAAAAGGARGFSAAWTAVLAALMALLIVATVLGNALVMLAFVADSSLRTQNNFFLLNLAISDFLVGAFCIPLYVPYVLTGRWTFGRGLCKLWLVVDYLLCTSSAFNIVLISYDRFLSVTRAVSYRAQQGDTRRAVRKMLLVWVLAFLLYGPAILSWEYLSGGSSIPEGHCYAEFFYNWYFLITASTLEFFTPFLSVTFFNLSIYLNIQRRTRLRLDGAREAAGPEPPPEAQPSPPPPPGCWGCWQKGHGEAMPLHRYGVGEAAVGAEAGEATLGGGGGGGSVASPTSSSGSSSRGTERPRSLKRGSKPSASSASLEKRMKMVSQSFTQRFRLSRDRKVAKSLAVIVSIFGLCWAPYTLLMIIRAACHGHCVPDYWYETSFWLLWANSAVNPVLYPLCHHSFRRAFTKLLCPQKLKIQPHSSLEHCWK
As to the kind of experiment: cAMP formation assay, inhibition of R-α-methylhistamine agonism, receptor transfected into CHO cells (EIA kit). It counts as cell-based. Conditions: EIA kit (Amersham). The source says: The compounds of the invention of formula (I) were also subjected to a cAMP formation assay on the human histamine H3 receptor transfected into CHO cells by the inhibition of the agonism brought about by the specific binding of R-α-methylhistamine to this receptor, according to the methods described by Lovenberg, T. W. et al. in J. Pharmacol. Exp. Ther., 293, 771-778 (2000).
Regarding `CN1CCCC1CCOc1ccc2c(c1)CN(CC1CCCCC1)CC2` (stereo not drawn) [Compound 5, 2-(cyclohexylmethyl)-7-[2-(1-methylpyrrolidin-2-yl)ethoxy]-1,2,3,4-tetrahydroisoquinoline], the IC50 was under 10000 pM.
